Measured values as given in PMC9970268 (Cancer Research Communications, 2022).

Assays:
MCF7 breast cancer cells = assay: Cell viability (MTT) assay; format: cell-based, human; settings: 250 nmol/L, 120 hr
Method: Using CellTiter 96 Non-Radioactive Cell Proliferation Assay (Promega, Corp.) according to manufactures’ instructions, formazan was used as an indicator of viable cells at an absorbance 570 nm in a Tecan Microplate Reader M100 (Tecan). Data were calculated as fold change from vehicle and transformed to logarithm base 10. 0 concentration was replaced with 1 nmol/L to fit using the 4-parameter logic nonlinear regression model in GraphPad Prism software. (n = 3 biologic replicates: with three technical replicates each).
Supplementary Figure S1. Percentage cell viability of MDA-MB-231, GFP-HER2-BM, […]
nM for 120 hr. The bar graphs are presented as individual fold change data points from vehicle and grouped mean ± SEM. (n = 3; *, P < 0.05; ** P < 0.01).
(§1) (1 picture or pasted object on this page, not shown here)

[1] = target: T1, Cdc42(G15A) interaction with Ect2 (Homo sapiens, UniProt P60953, G15A); assay: Cdc42 (G15A) pulldown assay, Ect2; format: binding; settings: 250 nmol/L, 1 hour preincubation, MDA-MB-231 cell lysates
T1 construct: purchased Cell Biolabs; host or cells: GEF from MDA-MB-231 lysate
Method: (§2) MDA-MB-231 cells were lysed in 1% Triton X-100, 20 mmol/L HEPES, pH 7.4, 150 mmol/L NaCl, 5 mmol/L MgCl2, and protease inhibitors, and processed as described previously ([20]). Equal amounts of protein from cleared lysates were incubated for 1 hour at 4°C with glutathione-agarose beads conjugated to GST-Rac1 and GST-Cdc42(G15A) nucleotide-free mutant (Cell Biolabs) that were preincubated (for 1 hour) with vehicle or Rac/Cdc42 inhibitors, as indicated. The beads were washed, and pulldowns were immunoblotted for Vav2 or Ect2.

Cdc42 [2] = settings: metastatic breast cancer cells; cited from earlier work
[3] = system: HER-2–positive (HER2+) tumor; settings: immunocompromised mice; cited from earlier work
[4] = mice; cited from earlier work
in vivo = settings: rats and dogs
GLP toxicity studies = settings: GLP data from a Contact Research Organization; rodents or dogs
GFP-HER2-BM cells [5] = assay: Apoptosis assay (Caspase-Glo3/7); format: cell-based, human; settings: 500 nmol/L, 48 hours
Method: (§3) Apoptosis was measured using a Caspase-Glo3/7 Luminescence Assay Kit as per manufacturer's instructions (Promega, Corp.), as described previously ([23]). Briefly, Caspase-3/7 Glo reagent was added and incubated at room temperature for 60 minutes and caspase-3/7 activities were determined by detecting luminescence using Tecan Microplate Reader M100 (Tecan). Data were calculated as fold change from vehicle. (n = 3 biologic replicates: with three technical replicates each).

MDA-MB-231 cells = assay: Apoptosis assay (Caspase-Glo3/7); format: cell-based, human; settings: 500 nmol/L, 48 hours
Method: as §3

MDA-MB-468 cells = assay: Apoptosis assay (Caspase-Glo3/7); format: cell-based, human; settings: 500 nmol/L, 48 hours
Method: as §3

[6] = system: MDA-MB-231, GFP-HER2-BM, and MDA-MB-468 cells; assay: Apoptosis assay (Caspase-Glo3/7), cell line not specified; format: cell-based, human; settings: 500 nmol/L, 48 hours
Method: as §3

GFP-HER2-BM cells [7] = assay: Transwell directed migration of attached and detached cells; format: cell-based, human; settings: treated 24 hr
Method: migration. Cells treated for 24hr and the attached and detached cell populations recovered and equal cell numbers were seeded on Transwells with […] and incubated for 7 hr.
Cells that migrated to the underside of the membrane were stained with propidium iodide and imaged at 20X. Representatives images are a result from two technical replicates and three […]
as §1

[8] = target: T2, Rac1(G15A) interaction with Vav2 (Homo sapiens, UniProt P63000, G15A); assay: Rac1 (G15A) pulldown assay, Vav2; format: binding; settings: 250 nmol/L, 1 hour preincubation, MDA-MB-231 cell lysates
T2 construct: purchased Cell Biolabs; host or cells: GEF from MDA-MB-231 lysate
Method: as §2

Rac1 [9] = target: T3, Rac1 (Homo sapiens, UniProt P63000); assay: Nucleotide association assay, catalyzed by Vav2; format: biochemical; parameters: purchased Cytoskeleton, Inc; settings: 2 or 10 μmol/L, N-MAR-GTP
Method: (§4) The nucleotide loading on purified Rho GTPases was monitored using a fluorophore-based Rho GEF Exchange Assay Kit as per manufacturer's instructions (Cytoskeleton, Inc.). Drugs were diluted in exchange buffer and incubated with Rac1, Cdc42, or RhoA. […] After the initial five readings (T0), GEFs (Dbs or Vav2) or Ethylenediaminetetraacetic acid (EDTA) was added to stimulate exchange and readings were obtained every 30 seconds for at least 60 cycles.

Rac1 [10] = target: T3, Rac1; assay: Nucleotide association assay, induced by EDTA; settings: read-out: inhibition of EDTA-induced loading of N-MAR-GTP on Rac1
Method: as §4
(§5) After initial five readings, the exchange factor Dbs was added to catalyze the loading of N-
(§6) B. 2µM Rac1 was incubated with 0 or 2 µM

RhoA = RhoA (Homo sapiens, UniProt P61586); assay: Nucleotide association assay, catalyzed by Dbs; settings: 2 μmol/L, N-MAR-GTP
Method: as §4, §5, §6

Rac1 [11] = target: T3, Rac1; assay: Rac activation pulldown assay in MDA-MB-231 cells; settings: MDA-MB-231, 24 hours, various concentrations
Method: (§7) Rac-GTP and Cdc42-GTP were detected using Rac Activity Assay or Cdc42 Activity Assay, as per manufacturer's instructions (Cell Signaling Technology). Briefly, total cell lysates were quantified and added equally to PAK-p21–binding domain conjugated Sepharose beads. After 1 hour of incubation, beads were washed, bound proteins extracted in sample buffer, and Rac1-GTP and Cdc42-GTP detected by Western blot analysis using Rac1, Rac1b, or Cdc42 antibody. (n = 3 biological replicates).
(§8) Total cell lysates or pulldowns were Western blotted using routine procedures. The primary antibodies used were anti-Rac (Cell Signaling Technology), anti-Cdc42 (Abcam), anti-PAK1+PAK2+PAK3 (Cell Signaling Technology), anti-pPAK1 (T423)/PAK2 (T402; Abcam), anti-PAK1 + PAK2 + PAK3 (phospho T423; Abcam), Rac1B, and β-actin (Millipore-Sigma).

Rac1B splice variant = Rac1B splice variant (Homo sapiens, UniProt P63000); assay: Rac1B activation pulldown assay in MDA-MB-468 cells; settings: MDA-MB-468, 500 nmol/L, 24 hours
Method: as §7, §8

Cdc42 [12] = target: Cdc42 (Homo sapiens, UniProt P60953); assay: Cdc42 activation pulldown assay in MDA-MB-231 cells; settings: MDA-MB-231, 24 hours
Method: as §7, §8

Rac1 [13] = target: T3, Rac1; assay: Rac activation pulldown assay (PAK p21-binding domain); settings: GFP-HER2-BM cells, 250 nmol/L, 24 hours
Method: as §7, §8

T1 sequence (P60953 whole entry G15A): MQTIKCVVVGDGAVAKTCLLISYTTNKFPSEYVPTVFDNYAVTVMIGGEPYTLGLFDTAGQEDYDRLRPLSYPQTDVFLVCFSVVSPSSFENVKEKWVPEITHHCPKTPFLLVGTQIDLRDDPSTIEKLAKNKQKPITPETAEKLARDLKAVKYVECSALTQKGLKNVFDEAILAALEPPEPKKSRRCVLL
Sequence of Cdc42 (Homo sapiens, UniProt P60953) (P60953 whole entry, the tested form may be a part): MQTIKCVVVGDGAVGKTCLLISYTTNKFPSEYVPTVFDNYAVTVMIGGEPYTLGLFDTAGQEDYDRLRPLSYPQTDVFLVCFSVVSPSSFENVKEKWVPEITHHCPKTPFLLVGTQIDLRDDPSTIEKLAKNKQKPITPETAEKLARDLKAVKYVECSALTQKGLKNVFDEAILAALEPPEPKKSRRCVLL
Sequence of RhoA (P61586 whole entry): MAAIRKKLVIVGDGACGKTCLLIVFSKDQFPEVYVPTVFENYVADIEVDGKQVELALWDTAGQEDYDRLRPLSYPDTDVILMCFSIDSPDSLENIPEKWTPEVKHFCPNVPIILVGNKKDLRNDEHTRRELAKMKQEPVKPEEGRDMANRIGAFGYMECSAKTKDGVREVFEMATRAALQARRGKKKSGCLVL

Question: Which results are given for CCn1c2ccccc2c2cc(-n3nncc3-c3ccccc3)ccc21 [MBQ-167]?
Answer: inhibition of cell viability (MCF7 breast cancer cells): 40%; Cdc42(G15A) interaction with Ect2 [1]: no effect; IC50 (Cdc42 [2]): 78 nM; inhibition of HER2+ tumor growth and metastasis to all organs [3]: approximately 90%; half-life in plasma [4]: approximately 2.5 hours; half-life in tumor tissue [4]: approximately 8 hours; NOAEL (in vivo): 1000 mg/kg; dose with no apparent toxicity (GLP toxicity studies): up to 1,000 mg/kg

Question: Which results are given for CCn1c2ccccc2c2cc(-n3nncc3-c3cccc(OC)c3)ccc21 [MBQ-168]?
Answer: inhibition of cell viability (MCF7 breast cancer cells): 40%; Caspase-3/7 activity (GFP-HER2-BM cells [5]): significantly increased Caspase-3/7 activity; Caspase-3/7 activity (MDA-MB-231 cells): significantly increased Caspase-3/7 activity; Caspase-3/7 activity (MDA-MB-468 cells): significantly increased Caspase-3/7 activity; caspase-3/7 activity compared with the vehicle [6]: three to five times; directed migration (GFP-HER2-BM cells [7]): both cell types were inhibited; Rac1(G15A) interaction with Vav2 [8]: no effect; Cdc42(G15A) interaction with Ect2 [1]: no effect; inhibition of GTP loading on Rac1 catalyzed by Vav2 (Rac1 [9]): ≥ 30%; inhibition at 2 µM (Rac1 [10]): ~50%; Dbs-catalyzed exchange of RhoA (RhoA): did not affect; Rac.GTP incorporation (Rac1 [11]): inhibits Rac.GTP incorporation in a dose-dependent manner; activation and expression of Rac1B (Rac1B splice variant): inhibited activation of Rac1B, as well as expression; Cdc42 activity (Cdc42 [12]): reduced in a dose-dependent manner; Rac1-GTP (Rac1 [13]; attached and detached cell population): complete depletion; reduction of Rac1 activation (Rac1.GTP) (Rac1 [13]; attached cell population): approximately 100%; decrease in Rac1 expression (Rac1 [13]; detached cell population): approximately 100%
